In patent US8759334B2, “Compounds useful for the treatment of metabolic and inflammatory diseases” (Galapagos NV, priority 2011, dated 2014):

Legend:
[1] = target: T1, GPR43 (Homo sapiens, UniProt O15552); assay: Calcium mobilization assay with probenecid; assay type: cell-based; details: GPR43 stably expressing cells; triggered with sodium acetate at EC80; 2.5 mM probenecid; read-out: GPR43 assay with probenicid IC50
T1 construct: expressed in transfected cells
T1 sequence (O15552 1-330): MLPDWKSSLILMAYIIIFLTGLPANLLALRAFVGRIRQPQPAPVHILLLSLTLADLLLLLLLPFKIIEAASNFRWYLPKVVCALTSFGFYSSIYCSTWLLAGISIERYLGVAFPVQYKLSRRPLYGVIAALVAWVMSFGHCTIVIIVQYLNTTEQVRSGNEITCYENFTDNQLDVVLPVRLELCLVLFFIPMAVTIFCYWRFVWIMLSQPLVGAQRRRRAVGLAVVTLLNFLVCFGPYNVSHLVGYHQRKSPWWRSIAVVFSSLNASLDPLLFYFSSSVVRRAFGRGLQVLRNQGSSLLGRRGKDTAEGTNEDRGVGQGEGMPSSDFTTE
Procedure, shortened: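 Cells stably expressing GPR43 plated overnight at 37 °C, then loaded 2 h with Calcium 4 dye plus 2.5 mM probenecid. […]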

[2] = target: T1, GPR43; assay: Calcium mobilization assay without probenecid; assay type: cell-based; details: GPR43 stably expressing cells, triggered with sodium acetate at EC80, read-out: GPR43 assay without probenicid IC50
Method: The following assay can be used for determination of GPR43 activation. The assay measures intracellular calcium release induced by activation of GPR43. On day 1, GPR43 stably expressing cells were detached with mild trypsinization (Trypsin, 0.25% with EDTA 4Na, 5× diluted in PBS) centrifuged at 1000 rpm for 5 min and resuspended at 6.000 cells/25 μL medium (DMEM supplemented with 10% FBS, 10 μg/mL puromycin and 1% Pen/Strep). The cells were distributed in poly-D-lysine coated 384 well plates (black with clear bottom, 25 μL/well) and incubated overnight at 37° C. 10% CO2. On day 2, 25 μL of a fluorescent Ca^2+ indicator (Calcium 4 assay; Molecular Devices) was added on top of the cells and incubated for 2 h at 37° C. Subsequently, compounds at increasing concentration (10 μL/well) were added to the plate and incubated for 15 min at 37° C. Finally the cells were triggered with sodium acetate at EC80 concentration (concentration which gives 80% of the activity of the GPR43) and the Ca-flux was measured simultaneously to the trigger injection on a fluorescence plate reader (FlexStation3), this measures the antagonist activity of the compounds. To measure agonist activity of the compounds, compound was added to the well and the Ca-flux was measured simultaneously to the injection of compound.

IC50 [1] [µM] | IC50 [2] [µM] | SMILES
> 1 | > 1 | Cc1cc(C)cc(CC(=O)N2CCC2(C)C(=O)N(C)Cc2ccc(Cl)cc2Cl)c1 (centres unmarked) [Compound 36, 1-[2-(3,5-Dimethyl-phenyl)-acetyl]-2-methyl-azetidine-2-carboxylic acid (2,4-dichloro-benzyl)-methyl-amide]
> 1 | 0.501 to 1 | Cc1cc(C)cc(CC(=O)N2CCC2(C)C(=O)N(C)Cc2ccc(OC(F)(F)F)cc2)c1 (centres unmarked) [Compound 37, 1-[2-(3,5-Dimethyl-phenyl)-acetyl]-2-methyl-azetidine-2-carboxylic acid methyl-(4-trifluoromethoxy-benzyl)-amide]
> 1 | > 1 | COc1cccc(-c2ccc(CC(=O)N3CCC3(C)C(=O)N(C)Cc3ccc(Cl)cc3)cc2)c1 (centres unmarked) [Compound 38, 1-[2-(3′-Methoxy-biphenyl-4-yl)-acetyl]-2-methyl-azetidine-2-carboxylic acid (4-chloro-benzyl)-methyl-amide]
> 1 | > 1 | Cc1cc(C)cc(CC(=O)N2CCC2(C)C(=O)N(C)Cc2ccc(Cl)c(F)c2)c1 (centres unmarked) [Compound 42, 1-[2-(3,5-Dimethyl-phenyl)-acetyl]-2-methyl-azetidine-2-carboxylic acid (4-chloro-3-fluoro-benzyl)-methyl-amide]
> 1 | > 1 | Cc1ccc(CNC(=O)C2(C)CCN2C(=O)Cc2ccc(Cl)cc2Cl)cc1 (centres unmarked) [Compound 43, 1-[2-(2,4-Dichloro-phenyl)-acetyl]-2-methyl-azetidine-2-carboxylic acid 4-methyl-benzylamide]
> 1 | > 1 | CC1(C(=O)NCc2ccc(C(F)(F)F)cc2)CCN1C(=O)Cc1ccc(Cl)cc1Cl (centres unmarked) [Compound 44, 1-[2-(2,4-Dichloro-phenyl)-acetyl]-2-methyl-azetidine-2-carboxylic acid 4-trifluoromethyl-benzylamide]
> 1 | > 1 | CN(Cc1ccc(C(F)(F)F)cc1)C(=O)C1(C)CCN1C(=O)Cc1ccc(Cl)cc1Cl (centres unmarked) [Compound 45, 1-[2-(2,4-Dichloro-phenyl)-acetyl]-2-methyl-azetidine-2-carboxylic acid methyl-(4-trifluoromethyl-benzyl)-amide]
> 1 | > 1 | Cc1cc(C)cc(CC(=O)N2CCC2(C)C(=O)N(Cc2ccc(Cl)cc2)C2CC2)c1 (centres unmarked) [Compound 46, 1-[2-(3,5-Dimethyl-phenyl)-acetyl]-2-methyl-azetidine-2-carboxylic acid (4-chloro-benzyl)-cyclopropyl-amide]
0.501 to 1 | 0.501 to 1 | COC(=O)CN(Cc1ccc(Cl)cc1)C(=O)C1(C)CCN1C(=O)Cc1cc(C)cc(C)c1 (centres unmarked) [Compound 48, ((4-Chloro-benzyl)-{1-[2-(3,5-dimethyl-phenyl)-acetyl]-2-methyl-azetidine-2-carbonyl}-amino)-acetic acid methyl ester]
0.101 to 0.5 | 0.101 to 0.5 | Cc1cc(C)cc(CC(=O)N2CCC2(C)C(=O)N(CC(=O)O)Cc2ccc(Cl)cc2)c1 (centres unmarked) [Compound 49, ((4-Chloro-benzyl)-{1-[2-(3,5-dimethyl-phenyl)-acetyl]-2-methyl-azetidine-2-carbonyl}-amino)-acetic acid]
> 1 | > 1 | Cc1c(C(=O)N2CCC2(C)C(=O)N(C)Cc2ccc(Cl)cc2)oc2ccccc12 (centres unmarked) [Compound 50, N-(4-chlorobenzyl)-N,2-dimethyl-1-(3-methylbenzofuran-2-carbonyl)azetidine-2-carboxamide]
> 1 | > 1 | Cc1cccc(CNC(=O)C2(C)CCN2C(=O)Cc2ccc(Cl)cc2Cl)c1 (centres unmarked) [Compound 51, 1-[2-(2,4-Dichloro-phenyl)-acetyl]-2-methyl-azetidine-2-carboxylic acid 3-methyl-benzylamide]
> 1 | > 1 | CC1(C(=O)NCc2ccc(Cl)cc2)CCN1C(=O)C1(c2ccc(Cl)cc2Cl)CC1 (centres unmarked) [Compound 52, N-(4-chlorobenzyl)-1-(1-(2,4-dichlorophenyl)cyclopropanecarbonyl)-2-methylazetidine-2-carboxamide]
